Assay results as given in patent US12138267B2, “Methods of treating respiratory depression modulated by a non-opioid agent” (Enalare Therapeutics Inc., priority 2021, dated 2024).
Entries after “also recorded” stand apart in the source; their conditions may differ. Read-outs that look alike come from different tables or passages of the source.

Key:
[1] = Pharmacokinetics of Compound A, plasma concentrations after IV infusion; type: in vivo, human; conditions: for AUC(0-t) / clearance / Cmax / half-life / Tmax / AUC(0-inf): both sexes, human, plasma, intravenous
Method: Subjects underwent 3 separate treatment periods. […] PD will be unblinded for treatment but not subject. […] Participant Disposition
Pharmacokinetic samples were measured up to 24 hours after the start of the IV infusion. […] Therefore, a fast decrease in concentration was observed, followed by a slow […].

[2] = test system: healthy participants; conditions: cited from earlier work

Question: With CCCNc1nc(NCCC)nc(N(C)OC)n1 [Compound A] as the compound, how does the AUC(0-t) ([1]; ENA-001 high dose, N 12, read-out: AUClast Mean) read?
Answer: The AUC(0-t) was 8500 ng·h/mL.

Question: And the AUC(0-t) ([1]; ENA-001 high dose, N 12, read-out: AUClast Median)?
Answer: Its AUC(0-t) is 7540 ng·h/mL.

Question: And the clearance ([1]; ENA-001 high dose, N 12, read-out: CL Geometric Mean (converted))?
Answer: The clearance was 735 mL/min.

Question: What about the clearance ([1]; ENA-001 high dose, N 12, read-out: CL Mean (converted)) of the same compound?
Answer: The clearance was 756 mL/min.

Question: And the clearance ([1]; ENA-001 high dose, N 12, read-out: CL Median (converted))?
Answer: Its clearance is 772 mL/min.

Question: And the Cmax ([1]; ENA-001 high dose, N 12, read-out: Cmax Geometric Mean)?
Answer: Its Cmax is 1510 ng/mL.

Question: What about the Cmax ([1]; ENA-001 high dose, N 12, read-out: Cmax Mean) of the same compound?
Answer: The Cmax was 1560 ng/mL.

Question: What about the Cmax ([1]; ENA-001 high dose, N 12, read-out: Cmax Median) of the same compound?
Answer: Its Cmax is 1520 ng/mL.

Question: What about the half-life ([1]; ENA-001 high dose, N 12, read-out: t1/2 Geometric Mean (converted)) of the same compound?
Answer: Its half-life is 5.49 h.

Question: And the half-life ([1]; ENA-001 high dose, N 12, read-out: t1/2 Mean (converted))?
Answer: Its half-life is 5.64 h.

Question: What about the half-life ([1]; ENA-001 high dose, N 12, read-out: t1/2 Median (converted)) of the same compound?
Answer: Its half-life is 5.63 h.

Question: And the Tmax ([1]; ENA-001 high dose, N 12, read-out: tmax Geometric Mean)?
Answer: The Tmax was 3.84 h.

Question: And the Tmax ([1]; ENA-001 high dose, N 12, read-out: tmax Mean)?
Answer: The Tmax was 3.96 h.

Question: And the Tmax ([1]; ENA-001 high dose, N 12, read-out: tmax Median)?
Answer: Its Tmax is 4.36 h.

Question: And the AUC(0-inf) ([1]; ENA-001 low dose, N 12, read-out: AUCinf Geometric Mean)?
Answer: Its AUC(0-inf) is 2660 ng·h/mL.

Question: And the AUC(0-inf) ([1]; ENA-001 low dose, N 12, read-out: AUCinf Mean)?
Answer: The AUC(0-inf) was 2670 ng·h/mL.

Question: What about the AUC(0-inf) ([1]; ENA-001 low dose, N 12, read-out: AUCinf Median) of the same compound?
Answer: Its AUC(0-inf) is 2650 ng·h/mL.

Question: What about the AUC(0-t) ([1]; ENA-001 low dose, N 12, read-out: AUClast Geometric Mean) of the same compound?
Answer: Its AUC(0-t) is 2610 ng·h/mL.

Question: And the AUC(0-t) ([1]; ENA-001 low dose, N 12, read-out: AUClast Mean)?
Answer: The AUC(0-t) was 2630 ng·h/mL.

Question: And the AUC(0-t) ([1]; ENA-001 low dose, N 12, read-out: AUClast Median)?
Answer: Its AUC(0-t) is 2630 ng·h/mL.

Question: And the clearance ([1]; ENA-001 low dose, N 12, read-out: CL Geometric Mean (converted))?
Answer: Its clearance is 918 mL/min.

Question: What about the clearance ([1]; ENA-001 low dose, N 12, read-out: CL Mean (converted)) of the same compound?
Answer: The clearance was 929 mL/min.

Question: And the clearance ([1]; ENA-001 low dose, N 12, read-out: CL Median (converted))?
Answer: Its clearance is 885 mL/min.

Question: And the Cmax ([1]; ENA-001 low dose, N 12, read-out: Cmax Geometric Mean)?
Answer: The Cmax was 463 ng/mL.

Question: And the Cmax ([1]; ENA-001 low dose, N 12, read-out: Cmax Mean)?
Answer: Its Cmax is 468 ng/mL.

Question: And the Cmax ([1]; ENA-001 low dose, N 12, read-out: Cmax Median)?
Answer: The Cmax was 477 ng/mL.

Question: And the half-life ([1]; ENA-001 low dose, N 12, read-out: t1/2 Geometric Mean (converted))?
Answer: Its half-life is 4.99 h.

Question: And the half-life ([1]; ENA-001 low dose, N 12, read-out: t1/2 Mean (converted))?
Answer: Its half-life is 5.1 h.

Question: And the half-life ([1]; ENA-001 low dose, N 12, read-out: t1/2 Median (converted))?
Answer: The half-life was 5.05 h.

Question: What about the Tmax ([1]; ENA-001 low dose, N 12, read-out: tmax Geometric Mean) of the same compound?
Answer: Its Tmax is 4.25 h.

Question: And the Tmax ([1]; ENA-001 low dose, N 12, read-out: tmax Mean)?
Answer: Its Tmax is 4.26 h.

Question: What about the Tmax ([1]; ENA-001 low dose, N 12, read-out: tmax Median) of the same compound?
Answer: Its Tmax is 4.33 h.

Question: What about the AUC(0-inf) ([1]; high dose, read-out: highest individual AUCinf) of the same compound?
Answer: The AUC(0-inf) was 13800 ng·h/mL.

Question: What about the Cmax ([1]; high dose, read-out: highest individual Cmax) of the same compound?
Answer: Its Cmax is 2600 ng/mL.

Question: And the AUC(0-inf) ([1]; high dose, read-out: mean (±SD) AUCinf)?
Answer: Its AUC(0-inf) is 8710 ± 2420 ng·h/mL.

Question: And the Cmax ([1]; high dose, read-out: mean (±SD) Cmax)?
Answer: The Cmax was 1560 ± 437 ng/mL.

Question: What about the half-life ([1]; high dose, read-out: range of apparent terminal t1/2) of the same compound?
Answer: Its half-life is 3.39 to 8.4 h.

Question: What about the Tmax ([1]; high dose, read-out: tmax (mean peak concentrations)) of the same compound?
Answer: Its Tmax is 3.96 h.

Question: What about the AUC(0-inf) ([1]; low dose, read-out: mean (±SD) AUCinf) of the same compound?
Answer: The AUC(0-inf) was 2670 ± 330 ng·h/mL.

Question: And the Cmax ([1]; low dose, read-out: mean (±SD) Cmax)?
Answer: The Cmax was 468 ± 68.2 ng/mL.

Question: And the half-life ([1]; low dose, read-out: range of apparent terminal t1/2)?
Answer: Its half-life is 3 to 6.99 h.

Question: And the Tmax ([1]; low dose, read-out: tmax (mean peak concentrations))?
Answer: The Tmax was 4.26 h.

Question: What about the “Plasma concentration decline after infusion stop” value ([1]; from 4 hour 30 minutes onwards) of the same compound?
Answer: The value was “bi-exponential decline”.

Question: And the Average tmin ([1]; high dose)?
Answer: Its Average tmin is 1.133 h.

Question: And the “Geometric mean Cav30-270 min (average arterial plasma concentration during 30-270 min)” value ([1]; high dose)?
Answer: The value was 1161.69 ng/mL.

Question: And the “Maximum concentration on average following IV infusion loading dose” value ([1]; high dose, 20 minutes loading dose 2.0 mg/kg/h)?
Answer: The value was 1162.833 ng/mL.

Question: What about the “average Compound A concentration per propofol dosing interval” value ([1]; high dose, high propofol 200-270 min) of the same compound?
Answer: Its value is 1412.28 ng/mL.

Question: And the “average Compound A concentration per propofol dosing interval” value ([1]; high dose, low propofol 115-185 min)?
Answer: The value was 1206.27 ng/mL.

Question: And the “average Compound A concentration per propofol dosing interval” value ([1]; high dose, no propofol 30-100 min)?
Answer: The value was 971.79 ng/mL.

Question: What about the “Effect of propofol on Compound A concentrations” value ([1]; in vivo) of the same compound?
Answer: The value was “No apparent effect”.

Question: And the “Dose proportionality of PK” value ([1]; investigated dosing range, dose normalised AUC and Cav)?
Answer: Its value is “Dose proportionality of PK over the investigated dosing range was apparent; also recorded: Dose proportionality of PK was apparent over the investigated dosing range; also recorded: showed dose proportionality over the investigated dosing range”.

Question: And the Average tmin ([1]; low dose)?
Answer: The Average tmin was 1.201 h.

Question: What about the “Geometric mean Cav30-270 min (average arterial plasma concentration during 30-270 min)” value ([1]; low dose) of the same compound?
Answer: Its value is 366.40 ng/mL.

Question: And the “Maximum concentration on average following IV infusion loading dose” value ([1]; low dose, 10 minutes loading dose 2.0 mg/kg/h)?
Answer: The value was 857.000 ng/mL.

Question: What about the “average Compound A concentration per propofol dosing interval” value ([1]; low dose, high propofol 200-270 min) of the same compound?
Answer: The value was 427.54 ng/mL.

Question: And the “average Compound A concentration per propofol dosing interval” value ([1]; low dose, low propofol 115-185 min)?
Answer: The value was 359.75 ng/mL.

Question: What about the “average Compound A concentration per propofol dosing interval” value ([1]; low dose, no propofol 30-100 min) of the same compound?
Answer: The value was 323.41 ng/mL.

Question: And the Steady state ([1]; within the 260 and 250 minute infusions)?
Answer: The Steady state was “steady-state concentrations were not reached; also recorded: did not reach steady state”.

Question: And the Ventilatory stimulation ([2]; high dose (1.1 mg/kg/h), healthy participants, Roozekrans et al., 2014)?
Answer: The Ventilatory stimulation was “clear ventilatory stimulation”.

Question: And the “Stimulatory effects on minute ventilation” value ([2]; low dose (0.4 mg/kg/h), McLeod et al., 2014)?
Answer: Its value is “no/minimal stimulatory effects on minute ventilation”.

Question: What about the “Nausea in previous studies” value ([2]; previous studies) of the same compound?
Answer: Its value is “nausea was associated with Compound A administration”.
